Key:
Assay type in all cases: in vivo
Psylla piri = experiment: Example 6: pear trees treated against Psylla piri; settings: larvae on shoots, % a.i.: amitraz 0.05, I-9, I-2, I-1 0.096
Description: In three replications, in each case 4 about 4-year-old pear trees of the cultivar “Williams Christ” are treated against Psylla piri. Two applications are carried out at an interval of 11 days using a motor-operated barrow-mounted sprayer. Here, the active compounds Example (I-9) (240 SC), Example (I-2) (240 SC) and Example (I-1) (240 SC) are tested against the commercial standard Amitraz (200 EC) at the stated amounts. The application rate is 2000 l of water/ha.
Evaluation is carried out 3, 10 and 20 days after the last treatment by rating the kill of the larvae in percent on the shoots.

Pulvinaria aethiopicus = experiment: Example 10: mandarin trees treated against Pulvinaria aethiopicus; settings: 45 days after last of two treatments, on fruits, % a.i.: mineral oil 0.251 + pyriproxifen 0.003, I-9 0.0096, I-2 0.0144
Description: In three replications, about 6-year-old mandarin trees of the cultivar “Naartje” are treated against Pulvinaria aethiopicus. Two applications are carried out at an interval of 32 days as irradication treatment using a knapsack operated with pressurized air. Here, the active compounds Example (I-9) (240 SC) and Example (I-2) (240 SC) are tested against a commercial tank mix of a mineral oil (835 EC) which is commercially available in South Africa and customarily used in this country and pyriproxifen (100 EC) at the stated amounts. The application rate is 8.3 l of water/tree.
Evaluation is carried out 45 days after the last treatment by rating the kill in percent on the fruits.

Nasonovia ribisnigri = experiment: Example 42: head lettuce treated against Nasonovia ribisnigri; settings: on plants, g a.i./ha: Pirimor 150, I-4 48, I-8 42
Description: In four replications, plots of a size of 5 m^2 with head lettuce are, two weeks after transplantation, treated against Nasonovia ribisnigri. The application is carried out using a knapsack sprayer operated with pressurized air. Here, the active compounds Example (I-4) (240 SC) and Example (I-8) (240 SC) are, in a tank mix with 0.2% a.i. of rapeseed oil methyl ester (500 EW), tested against the commercial standard Pirimor, at the stated application rates. The application rate is 500 l of water/ha.
Evaluation is carried out 7, 14 and 26 days after the treatment by rating the kill of the animals on the plants.

Dysmicoccus brevipes = experiment: Example 30: pineapple plants treated against Dysmicoccus brevipes; settings: nymphs on pineapple plants, g a.i./ha: Confidor OD 140, I-4 75
Description: In five replications, pineapple plants of the cultivar “MD2” of a height of about 35 cm are treated against Dysmicoccus brevipes. The application is carried out using a motor-operated knapsack sprayer. Here, the active compound Example (I-4) (150 OD) is tested against the commercial standard Confidor OD (240 OD), at the stated application rates. The application rate is 4000 l of water/ha. Both active compounds are sprayed as a tank mix with 500 g of a.i./ha of adjuvant NP-7 and 4 l of a.i./ha of mineral oil.
Evaluation is carried out 9, 23 and 37 days after the treatment by rating the kill of the nymphs on the plants.

[1] = test system: Quadraspidiotus perniciosus; experiment: Example 17: apple trees treated against San Jose scale louse; settings: 43 days after last of two treatments, on shoots, g a.i./ha/m crown height: Dursban 223, I-4 72
Description: In three replications, four about 18-year-old apple trees of the cultivar “Red Chief” are treated against the San Jose scale louse Quadraspidiotus perniciosus. Two applications are carried out at an interval of 15 days using a motor-operated barrow-mounted sprayer. Here, the active compound Example (I-4) (240 SC) is applied in a tank mix with 0.2% a.i. of rapeseed oil methyl ester (500 EW) at the stated application rate and the commercial standard Dursban (446 EC) is applied at the stated application rate. The application rate is 1500 l of water/ha.
Evaluation is carried out 43 days after the last treatment by rating the kill on the shoots.

Myzus persicae [2] = experiment: Example 50: tomatoes treated against Myzus persicae; settings: nymphs on leaves, g a.i./ha: acetamiprid 50, I-9 36, I-4 48
Description: In two replications, plots of a size of about 43 m^2 with tomatoes of the cultivar “Yaqui” are treated against Myzus persicae. The application is carried out using a motor-operated knapsack sprayer. Here, the active compounds Example (I-9) (240 SC) and Example (I-4) (240 SC), in a tank mix with 0.1% a.i. of rapeseed oil methyl ester (500 EW), and the standard acetamiprid (20 WP) are applied at the stated application rates. The application rate is 208 l of water/ha.
Evaluation is carried out 3 and 10 days after the treatment by rating the kill of the nymphs on the leaves.

Paratrioza cockerelli = experiment: Example 9: tomatoes treated against Paratrioza cockerelli; settings: nymphs on leaves, g a.i./ha: Levarage 81, I-4 48
Description: In three replications, plots of a size of 10 m^2 with tomatoes are treated against Paratrioza cockerelli. Application is carried out using a knapsack sprayer operated with pressurized air. Here, the active compound Example (I-4) (240 SC) in a tank mix with 0.2% a.i. of rapeseed oil methyl ester (500 EW) and the commercial standard Leverage (324 SE) are tested at the stated application rates. There are two applications at an interval of 7 days. The application rate is 345 l of water/ha.
Evaluation is carried out 7, 14 and 21 days after the first treatment by rating the kill of the animals (nymphs) on the leaves.

Myzus persicae [3] = experiment: Example 49: potatoes treated against Myzus persicae; settings: live nymphs on leaves, Henderson and Tilten, g a.i./ha: Tamaron 585, I-4 48
Description: In four replications, plots of a size of about 7.5 m^2 with potatoes of the cultivar “BP 1” are treated against Myzus persicae. The application is carried out using a knapsack sprayer operated with pressurized air. Here, the active compound Example (I-4) (240 SC), in a tank mix with 0.2% a.i. of rapeseed oil methyl ester (500 EW), and the commercial standard Tamaron (585 SL) are tested at the stated application rates. Two applications are carried out, at an interval of 7 days. The application rate is 500 l of water/ha.
Evaluation is carried out 7 and 13 days after the first treatment by counting the live animals (nymphs) on the leaves. The efficacy is then calculated by calculating the effect on the population in percent according to Henderson and Tilten.

[4] = 7 d after first of two treatments

SMILES: CCOC(=O)OC1=C(c2cc(C)ccc2Br)C(=O)NC12CCC(OC)CC2 (stereo not drawn) [Example (I-2)]
- Kill (%) 3 d (Psylla piri; 3 d after last of two treatments): 96.7%
- Kill (%) 10 d (Psylla piri; 10 d after last of two treatments): 99%
- Kill (%) 20 d (Psylla piri; 20 d after last of two treatments): 97.9%
- Kill (%) (Pulvinaria aethiopicus): 72%

SMILES: CCOC(=O)OC1=C(c2cc(C)ccc2C)C(=O)NC12CCC(OC)CC2 (stereo not drawn) [Example (I-4)]
- Kill (%) 7 d (Nasonovia ribisnigri; 7 d after treatment): 92.3%
- Kill (%) 14 d (Nasonovia ribisnigri; 14 d after treatment): 95.7%
- Kill (%) 26 d (Nasonovia ribisnigri; 26 d after treatment): 95.1%
- Kill (%) 9 days (Dysmicoccus brevipes; 9 days after treatment): 80.9%
- Kill (%) 23 days (Dysmicoccus brevipes; 23 days after treatment): 84.0%
- Kill (%) 37 days (Dysmicoccus brevipes; 37 days after treatment): 91.3%
- Kill (%) [1]: 90.4%
- Kill (%) 3 d (Myzus persicae [2]; 3 d after treatment): 92.6%
- Kill (%) 10 d (Myzus persicae [2]; 10 d after treatment): 95.9%
- Kill (%) 7 d (Paratrioza cockerelli; [4]): 71.3%
- Kill (%) 14 d (Paratrioza cockerelli; 14 d after first of two treatments): 90.3%
- Kill (%) 21 d (Paratrioza cockerelli; 21 d after first of two treatments): 95.5%
- Effect (%) 7 d (Myzus persicae [3]; [4]): 67%
- Effect (%) 13 d (Myzus persicae [3]; 13 d after first of two treatments): 100%
